Measured values published in US12528786B2, “Plasma kallikrein inhibitors” (Merck Sharp & Dohme LLC, priority 2020, dated 2026).

What follows are compounds tested against T1, Human plasma kallikrein (Homo sapiens, UniProt P03952) (assay: Kallikrein Assay (fluorogenic substrate hydrolysis, AFC release)). Settings: purified Human plasma kallikrein 0.5 nM; substrate Acetyl-K—P—R-AFC 100 mM; 50 mM HEPES pH 7.4.
T1 construct: yields a heavy chain (371 amino acids) and a light chain (248 amino acids); purchased Enzyme Research Laboratories
T1 sequence (P03952 391-638 limits assumed): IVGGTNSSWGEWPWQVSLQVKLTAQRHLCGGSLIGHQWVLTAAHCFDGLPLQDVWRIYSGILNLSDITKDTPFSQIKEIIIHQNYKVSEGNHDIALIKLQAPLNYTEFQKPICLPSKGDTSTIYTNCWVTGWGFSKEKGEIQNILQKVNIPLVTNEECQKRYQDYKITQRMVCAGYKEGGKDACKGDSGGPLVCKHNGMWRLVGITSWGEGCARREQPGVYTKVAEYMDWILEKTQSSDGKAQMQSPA
T1 sequence (P03952 20-390 partner limits assumed): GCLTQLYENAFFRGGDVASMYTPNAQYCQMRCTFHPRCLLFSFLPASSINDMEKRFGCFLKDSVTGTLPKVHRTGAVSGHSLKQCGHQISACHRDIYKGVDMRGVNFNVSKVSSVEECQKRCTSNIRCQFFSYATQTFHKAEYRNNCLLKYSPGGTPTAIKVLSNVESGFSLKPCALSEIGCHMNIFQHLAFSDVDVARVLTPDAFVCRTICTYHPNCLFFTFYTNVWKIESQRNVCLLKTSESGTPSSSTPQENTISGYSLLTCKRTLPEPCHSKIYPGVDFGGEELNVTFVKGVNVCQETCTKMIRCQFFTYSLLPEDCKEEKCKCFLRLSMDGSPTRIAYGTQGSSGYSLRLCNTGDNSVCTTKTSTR
Type: biochemical
In short: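 Enzyme–inhibitor equilibrated before substrate dilution to ≤0.2 Km; human plasma kallikrein at 0.5 nM final, Acetyl-K-P-R-AFC substrate, HEPES pH 7.4 buffer with NaCl, CaCl2, PEG 8000, at room temperature or 37° C. Linear-phase fluorescence rate gives percent inhibition, four-parameter logistic IC50, then Cheng-Prusoff Ki.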
Work on `Cc1ccc(C#N)c([C@H]2C[C@@H](NC(=O)c3cn(C(C)c4cnc(N5C[C@H]6C[C@H]6C5=O)cc4C)nn3)C2)c1` (single isomer, unassigned) [Example 66, N-((cis)-3-(2-cyano-5-methylphenyl)cyclobutyl)-1-((R or S)-1-(4-methyl-6-((1R,5S)-2-oxo-3-azabicyclo[3.1.0]hexan-3-yl)pyridin-3-yl)ethyl)-1H-1,2,3-triazole-4-carboxamide] yielded an IC50 of 62.6 nM.
In the case of `Cc1ccc(C#N)c([C@H]2C[C@@H](NC(=O)c3cn(C(C)c4cnc(N5C[C@H]6C[C@H]6C5=O)cc4C)nn3)C2)c1` (single isomer, unassigned) [Example 67, N-((cis)-3-(2-cyano-5-methylphenyl)cyclobutyl)-1-((S or R)-1-(4-methyl-6-((1R,5S)-2-oxo-3-azabicyclo[3.1.0]hexan-3-yl)pyridin-3-yl)ethyl)-1H-1,2,3-triazole-4-carboxamide], the IC50 is reported as 1.7 nM.
In the case of `Cc1ccc(C#N)c([C@H]2C[C@@H](NC(=O)c3cn(C(C)c4cnc(N5C[C@H]6C[C@H]6C5=O)cc4C)nn3)C2)n1` (single isomer, unassigned) [Example 68, N-((cis)-3-(3-cyano-6-methylpyridin-2-yl)cyclobutyl)-1-((R or S)-1-(4-methyl-6-((1R,5S)-2-oxo-3-azabicyclo[3.1.0]hexan-3-yl)pyridin-3-yl)ethyl)-1H-1,2,3-triazole-4-carboxamide], the IC50 is reported as 1.9 nM.
Work on `Cc1cc(N2C[C@H]3C[C@H]3C2=O)ncc1C(C)n1cc(C(=O)N[C@H]2C[C@@H](c3cc(Cl)ccc3OC(F)F)C2)nn1` (single isomer, unassigned) [Example 69, N-((cis)-3-(5-chloro-2-(difluoromethoxy)phenyl)cyclobutyl)-1-((R or S)-1-(4-methyl-6-((1R,5S)-2-oxo-3-azabicyclo[3.1.0]hexan-3-yl)pyridin-3-yl)ethyl)-1H-1,2,3-triazole-4-carboxamide] yielded an IC50 of 2790 nM.
For `Cc1cc(N2C[C@H]3C[C@H]3C2=O)ncc1C(C)n1cc(C(=O)N[C@H]2C[C@@H](c3cc(Cl)ccc3OC(F)F)C2)nn1` (single isomer, unassigned) [Example 70, N-((cis)-3-(5-chloro-2-(difluoromethoxy)phenyl)cyclobutyl)-1-((S or R)-1-(4-methyl-6-((1R,5S)-2-oxo-3-azabicyclo[3.1.0]hexan-3-yl)pyridin-3-yl)ethyl)-1H-1,2,3-triazole-4-carboxamide], the IC50 was 14.6 nM.
With `Cc1cc(N2C[C@H]3C[C@H]3C2=O)ncc1C(C)n1cc(C(=O)N[C@H]2C[C@@H](c3cc(Cl)ccc3C(F)F)C2)nn1` (single isomer, unassigned) [Example 71, N-((cis)-3-(5-chloro-2-(difluoromethyl)phenyl)cyclobutyl)-1-((R or S)-1-(4-methyl-6-((1R,5S)-2-oxo-3-azabicyclo[3.1.0]hexan-3-yl)pyridin-3-yl)ethyl)-1H-1,2,3-triazole-4-carboxamide] the IC50 was 12.7 nM.
In the case of `Cc1cc(N2C[C@H]3C[C@H]3C2=O)ncc1C(C)n1cc(C(=O)N[C@H]2C[C@@H](c3cc(Cl)ccc3C(F)F)C2)nn1` (single isomer, unassigned) [Example 72, N-((cis)-3-(5-chloro-2-(difluoromethyl)phenyl)cyclobutyl)-1-((S or R)-1-(4-methyl-6-((1R,5S)-2-oxo-3-azabicyclo[3.1.0]hexan-3-yl)pyridin-3-yl)ethyl)-1H-1,2,3-triazole-4-carboxamide], the IC50 is reported as 10000 nM.
`Cc1cc(N2C[C@H]3C[C@H]3C2=O)ncc1C(C)n1cc(C(=O)N[C@H]2C[C@@H](c3cc(Cl)ccn3)C2)nn1` (single isomer, unassigned) [Example 73, N-((cis)-3-(4-chloropyridin-2-yl)cyclobutyl)-1-((R or S)-1-(4-methyl-6-((1R,5S)-2-oxo-3-azabicyclo[3.1.0]hexan-3-yl)pyridin-3-yl)ethyl)-1H-1,2,3-triazole-4-carboxamide] was tested, and the IC50 was 107 nM.
In the case of `Cc1cc(N2C[C@H]3C[C@H]3C2=O)ncc1C(C)n1cc(C(=O)N[C@H]2C[C@@H](c3cc(Cl)ccn3)C2)nn1` (single isomer, unassigned) [Example 74, N-((cis)-3-(4-chloropyridin-2-yl)cyclobutyl)-1-((S or R)-1-(4-methyl-6-((1R,5S)-2-oxo-3-azabicyclo[3.1.0]hexan-3-yl)pyridin-3-yl)ethyl)-1H-1,2,3-triazole-4-carboxamide], the IC50 is reported as 3.9 nM.
For `Cc1cc(N2C[C@H]3C[C@H]3C2=O)ncc1C(C)n1cc(C(=O)N[C@H]2C[C@@](F)(c3cc(Cl)ccc3C#N)C2)nn1` (single isomer, unassigned) [Example 75, N-(cis)-3-(5-chloro-2-cyanophenyl)-3-fluorocyclobutyl)-1-((R or S)-1-(4-methyl-6-((1R,5S)-2-oxo-3-azabicyclo[3.1.0]hexan-3-yl)pyridin-3-yl)ethyl)-1H-1,2,3-triazole-4-carboxamide], the IC50 was 0.2 nM.
`Cc1cc(N2C[C@H]3C[C@H]3C2=O)ncc1C(C)n1cc(C(=O)N[C@H]2C[C@@](F)(c3cc(Cl)ccc3C#N)C2)nn1` (single isomer, unassigned) [Example 76, N-(cis)-3-(5-chloro-2-cyanophenyl)-3-fluorocyclobutyl)-1-((S or R)-1-(4-methyl-6-((1R,5S)-2-oxo-3-azabicyclo[3.1.0]hexan-3-yl)pyridin-3-yl)ethyl)-1H-1,2,3-triazole-4-carboxamide] was tested, and the IC50 was 15.7 nM.
`C[C@H](c1cnc(N2C[C@H]3C[C@H]3C2=O)nc1)n1cc(C(=O)N[C@H]2C[C@@H](c3cc(Cl)ccc3C#N)C2)nn1` (single isomer, unassigned) [Example 77] showed an IC50 of 8.1 nM.
In the case of `CC(c1cnc(N2C[C@H]3C[C@H]3C2=O)nc1)n1cc(C(=O)N[C@H]2C[C@@H](c3cc(Cl)ccc3C#N)C2)nn1` (single isomer, unassigned) [Example 78], the IC50 is reported as 41.5 nM.
In the case of `Cc1nc(N2C[C@H]3C[C@H]3C2=O)ncc1C(C)n1cc(C(=O)N[C@H]2C[C@@H](c3cc(Cl)ccc3C#N)C2)nn1` (single isomer, unassigned) [Example 80, N-((cis)-3-(5-chloro-2-cyanophenyl)cyclobutyl)-1-((R or S)-1-(4-methyl-2-((1R,5S)-2-oxo-3-azabicyclo[3.1.0]hexan-3-yl)pyrimidin-5-yl)ethyl)-1H-1,2,3-triazole-4-carboxamide], the IC50 is reported as 105 nM.
Work on `Cc1nc(N2C[C@H]3C[C@H]3C2=O)ncc1C(C)n1cc(C(=O)N[C@H]2C[C@@H](c3cc(Cl)ccc3C#N)C2)nn1` (single isomer, unassigned) [Example 81, N-((cis)-3-(5-chloro-2-cyanophenyl)cyclobutyl)-1-((S or R)-1-(4-methyl-2-((1R,5S)-2-oxo-3-azabicyclo[3.1.0]hexan-3-yl)pyrimidin-5-yl)ethyl)-1H-1,2,3-triazole-4-carboxamide] yielded an IC50 of 1.9 nM.
Compound `Cc1nc(N2C[C@H]3C[C@H]3C2=O)ncc1C(C)n1cc(C(=O)NC2CC(C)(c3cc(Cl)ccc3C#N)C2)nn1` (single isomer, unassigned) [Example 82, N-((cis)-3-(5-chloro-2-cyanophenyl)-3-methylcyclobutyl)-1-((R or S)-1-(4-methyl-2-((1R,5S)-2-oxo-3-azabicyclo[3.1.0]hexan-3-yl)pyrimidin-5-yl)ethyl)-1H-1,2,3-triazole-4-carboxamide] has an IC50 of 0.6 nM.
`Cc1nc(N2C[C@H]3C[C@H]3C2=O)ncc1C(C)n1cc(C(=O)NC2CC(C)(c3cc(Cl)ccc3C#N)C2)nn1` (single isomer, unassigned) [Example 83, N-((cis)-3-(5-chloro-2-cyanophenyl)-3-methylcyclobutyl)-1-((S or R)-1-(4-methyl-2-((1R,5S)-2-oxo-3-azabicyclo[3.1.0]hexan-3-yl)pyrimidin-5-yl)ethyl)-1H-1,2,3-triazole-4-carboxamide] was tested, and the IC50 was 39.5 nM.
For `Cc1nc([C@@H](C)n2cc(C(=O)N[C@H]3C[C@@H](c4cc(Cl)ccc4C#N)C3)nn2)cnc1N1C[C@H]2CC2C1=O` (single isomer, unassigned) [Example 84], the IC50 was 1.6 nM.
Compound `Cc1nc(C(C)n2cc(C(=O)N[C@H]3C[C@@H](c4cc(Cl)ccc4C#N)C3)nn2)cnc1N1C[C@H]2CC2C1=O` (single isomer, unassigned) [Example 85] has an IC50 of 0.9 nM.
`Cc1c(C(C)n2cc(C(=O)N[C@H]3C[C@@H](c4cc(Cl)ccc4C#N)C3)nn2)cnc(N2C[C@H]3C[C@H]3C2=O)c1C` (single isomer, unassigned) [Example 86, N-((cis)-3-(5-chloro-2-cyanophenyl)cyclobutyl)-1-((R or S)-1-(4,5-dimethyl-6-((1R,5S)-2-oxo-3-azabicyclo[3.1.0]hexan-3-yl)pyridin-3-yl)ethyl)-1H-1,2,3-triazole-4-carboxamide] gave an IC50 of 1.1 nM.
With `Cc1c(C(C)n2cc(C(=O)N[C@H]3C[C@@H](c4cc(Cl)ccc4C#N)C3)nn2)cnc(N2C[C@H]3C[C@H]3C2=O)c1C` (single isomer, unassigned) [Example 87, N-((cis)-3-(5-chloro-2-cyanophenyl)cyclobutyl)-1-((S or R)-1-(4,5-dimethyl-6-((1R,5S)-2-oxo-3-azabicyclo[3.1.0]hexan-3-yl)pyridin-3-yl)ethyl)-1H-1,2,3-triazole-4-carboxamide] the IC50 was 0.5 nM.
For `COc1cc(N2C[C@H]3C[C@H]3C2=O)ncc1C(C)n1cc(C(=O)N[C@H]2C[C@@H](c3cc(Cl)ccc3C#N)C2)nn1` (single isomer, unassigned) [Example 88, N-((cis)-3-(5-chloro-2-cyanophenyl)cyclobutyl)-1-((R or S)-1-(4-methoxy-6-((1R,5S)-2-oxo-3-azabicyclo[3.1.0]hexan-3-yl)pyridin-3-yl)ethyl)-1H-1,2,3-triazole-4-carboxamide], the IC50 was 11.3 nM.
In the case of `COc1cc(N2C[C@H]3C[C@H]3C2=O)ncc1C(C)n1cc(C(=O)N[C@H]2C[C@@H](c3cc(Cl)ccc3C#N)C2)nn1` (single isomer, unassigned) [Example 89, N-((cis)-3-(5-chloro-2-cyanophenyl)cyclobutyl)-1-((S or R)-1-(4-methoxy-6-((1R,5S)-2-oxo-3-azabicyclo[3.1.0]hexan-3-yl)pyridin-3-yl)ethyl)-1H-1,2,3-triazole-4-carboxamide], the IC50 is reported as 1.1 nM.
